Experimental data taken from ChEMBL document CHEMBL1201862, “PubChem BioAssay data set” (2004).
Active and inactive are the calls of the source.

How the values were obtained:
[1] = system: Streptococcus sp. 'group A'; assay: growth inhibition of control SK(-) GAS strain, dose response, counter-screen for streptokinase expression inhibitor project, luminescence, kanamycin, BacTiterGlo, confirmation (AID 1900); assay type: functional, organism-based
Streptokinase A = molecular target: T1, Streptokinase A (Streptococcus pyogenes serotype M1, UniProt P10520); assay: S. pyogenes streptokinase expression inhibitors, potency, dose response, plasminogen activation absorbance, OD405 (AID 1914); assay type: functional, Streptococcus pyogenes M1 GAS;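 note: secreted streptokinase activity via plasminogen activation per viability signal from cell pellet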
T1 sequence (P10520 whole entry): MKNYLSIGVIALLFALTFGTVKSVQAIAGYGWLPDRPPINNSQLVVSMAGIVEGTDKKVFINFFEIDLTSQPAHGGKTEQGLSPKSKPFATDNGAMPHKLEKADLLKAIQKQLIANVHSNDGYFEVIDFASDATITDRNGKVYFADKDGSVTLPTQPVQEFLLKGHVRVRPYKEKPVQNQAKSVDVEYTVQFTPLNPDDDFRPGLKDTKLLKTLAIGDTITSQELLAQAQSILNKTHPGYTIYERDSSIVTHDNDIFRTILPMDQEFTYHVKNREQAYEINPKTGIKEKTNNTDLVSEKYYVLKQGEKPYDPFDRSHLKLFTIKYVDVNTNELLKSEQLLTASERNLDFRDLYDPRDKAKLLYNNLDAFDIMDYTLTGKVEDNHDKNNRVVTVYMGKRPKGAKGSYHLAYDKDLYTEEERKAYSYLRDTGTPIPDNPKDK

Mucolipin-3 = molecular target: T2, Mucolipin-3 (Homo sapiens, UniProt Q8TDD5); assay: Dose response cell-based high-throughput screening assay for agonists of the transient receptor potential channel ML3 (TRPML3). [Related pubchem assays: 1526, 1424, 1448 ]; assay type: functional
T2 sequence (Q8TDD5 whole entry): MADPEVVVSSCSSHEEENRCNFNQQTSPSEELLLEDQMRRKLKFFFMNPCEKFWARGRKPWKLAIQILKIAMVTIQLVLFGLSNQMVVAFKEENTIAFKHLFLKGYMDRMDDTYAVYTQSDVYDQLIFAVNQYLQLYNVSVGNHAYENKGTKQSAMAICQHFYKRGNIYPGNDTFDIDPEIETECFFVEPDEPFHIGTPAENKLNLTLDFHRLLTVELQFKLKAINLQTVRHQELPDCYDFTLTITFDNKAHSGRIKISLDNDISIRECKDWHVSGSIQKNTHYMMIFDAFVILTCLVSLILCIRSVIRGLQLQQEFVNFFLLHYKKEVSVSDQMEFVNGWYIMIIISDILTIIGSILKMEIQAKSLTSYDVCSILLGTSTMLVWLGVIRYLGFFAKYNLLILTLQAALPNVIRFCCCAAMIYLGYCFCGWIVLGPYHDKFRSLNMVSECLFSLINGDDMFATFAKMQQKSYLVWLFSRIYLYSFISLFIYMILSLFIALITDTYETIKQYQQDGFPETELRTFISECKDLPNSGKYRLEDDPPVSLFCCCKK

Ion channel NompC = Ion channel NompC (Danio rerio, UniProt Q7T1G6); assay: Fluorescence counterscreen assay for TRPML3 agonists: dose response cell-based high-throughput screening assay to identify agonists of the transient receptor potential channel N1 (TRPN1). [Related pubchem assays: 1526, 1424, 1448 ]; assay type: functional
Streptococcus = assay: Group A Streptococcus viability loss, dose response, counter-screen for streptokinase expression inhibitor project, luminescence, BacTiterGlo (AID 1915); assay type: functional, organism-based;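 note: potency for reduction of bacterial viability or growth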
SUMO-activating enzyme [2] = molecular target: T3, SUMO-activating enzyme (Homo sapiens, UniProt Q9UBT2); assay: SUMOylation inhibitor hit validation, confirmation, SUMOylation inhibitor project, biochemical, AlphaScreen (AID 2018); assay type: functional
T3 sequence (Q9UBE0 whole entry): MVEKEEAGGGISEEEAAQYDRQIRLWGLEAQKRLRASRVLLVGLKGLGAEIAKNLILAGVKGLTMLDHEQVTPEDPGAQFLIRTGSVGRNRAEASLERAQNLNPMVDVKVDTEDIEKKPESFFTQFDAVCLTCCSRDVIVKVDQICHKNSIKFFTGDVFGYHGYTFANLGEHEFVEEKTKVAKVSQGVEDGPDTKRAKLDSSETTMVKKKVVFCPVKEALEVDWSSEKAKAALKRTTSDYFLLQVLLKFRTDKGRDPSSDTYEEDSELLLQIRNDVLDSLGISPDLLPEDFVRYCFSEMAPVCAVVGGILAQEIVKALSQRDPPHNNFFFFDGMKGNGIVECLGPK
T3 sequence (Q9UBT2 whole entry): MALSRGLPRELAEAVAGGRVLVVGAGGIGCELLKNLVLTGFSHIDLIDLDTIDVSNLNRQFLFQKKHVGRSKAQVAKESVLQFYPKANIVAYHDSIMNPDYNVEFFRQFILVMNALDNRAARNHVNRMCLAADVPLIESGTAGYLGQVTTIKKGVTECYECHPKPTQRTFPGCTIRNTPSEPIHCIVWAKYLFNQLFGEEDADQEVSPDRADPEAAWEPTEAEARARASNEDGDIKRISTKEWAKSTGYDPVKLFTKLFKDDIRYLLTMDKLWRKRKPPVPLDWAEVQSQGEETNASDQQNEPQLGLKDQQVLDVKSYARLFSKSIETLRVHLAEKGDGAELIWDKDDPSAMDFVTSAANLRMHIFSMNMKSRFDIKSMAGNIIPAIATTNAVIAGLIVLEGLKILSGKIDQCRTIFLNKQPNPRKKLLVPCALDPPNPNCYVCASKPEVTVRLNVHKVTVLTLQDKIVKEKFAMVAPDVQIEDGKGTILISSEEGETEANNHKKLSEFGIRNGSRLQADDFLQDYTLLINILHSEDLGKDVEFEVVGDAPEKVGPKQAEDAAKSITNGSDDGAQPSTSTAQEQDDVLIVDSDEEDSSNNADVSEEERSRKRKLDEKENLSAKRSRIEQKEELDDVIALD

SUMO-activating enzyme [3] = molecular target: T3, SUMO-activating enzyme; assay: inhibitors of in vitro SUMOylation cascade, primary screen, biochemical, HTRF, uHTS (AID 2006); assay type: protein-complex assay
[4] = molecular target: T4, Calpain-2 catalytic subunit (Sus scrofa, UniProt P43367); assay: pig calpain II inhibitor potency, dose response, biochemical, fluorogenic peptide substrate (AID 1420); assay type: functional
T4 sequence (P43367 whole entry): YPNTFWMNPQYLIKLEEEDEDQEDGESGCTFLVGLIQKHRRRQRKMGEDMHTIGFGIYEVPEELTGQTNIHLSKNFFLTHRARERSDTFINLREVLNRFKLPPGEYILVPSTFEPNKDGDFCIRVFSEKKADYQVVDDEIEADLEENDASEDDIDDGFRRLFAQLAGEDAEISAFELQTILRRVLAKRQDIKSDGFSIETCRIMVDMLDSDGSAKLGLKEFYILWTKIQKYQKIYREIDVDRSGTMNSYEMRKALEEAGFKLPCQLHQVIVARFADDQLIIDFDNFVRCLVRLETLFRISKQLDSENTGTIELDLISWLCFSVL

[5] = molecular target: Dual specificity tyrosine-phosphorylation-regulated kinase 1A (Rattus norvegicus, UniProt Q63470); assay type: biochemical, Homo sapiens
[6] = molecular target: Intestinal-type alkaline phosphatase (Homo sapiens, UniProt P09923); assay: Dose Response confirmation of uHTS hits from a small molecule inhibitors of human intestinal alkaline phosphatase via a luminescent assay. [Related pubchem assays (depositor defined):AID2544, AID2574]; assay type: functional
Sequence of Intestinal-type alkaline phosphatase (P09923 whole entry): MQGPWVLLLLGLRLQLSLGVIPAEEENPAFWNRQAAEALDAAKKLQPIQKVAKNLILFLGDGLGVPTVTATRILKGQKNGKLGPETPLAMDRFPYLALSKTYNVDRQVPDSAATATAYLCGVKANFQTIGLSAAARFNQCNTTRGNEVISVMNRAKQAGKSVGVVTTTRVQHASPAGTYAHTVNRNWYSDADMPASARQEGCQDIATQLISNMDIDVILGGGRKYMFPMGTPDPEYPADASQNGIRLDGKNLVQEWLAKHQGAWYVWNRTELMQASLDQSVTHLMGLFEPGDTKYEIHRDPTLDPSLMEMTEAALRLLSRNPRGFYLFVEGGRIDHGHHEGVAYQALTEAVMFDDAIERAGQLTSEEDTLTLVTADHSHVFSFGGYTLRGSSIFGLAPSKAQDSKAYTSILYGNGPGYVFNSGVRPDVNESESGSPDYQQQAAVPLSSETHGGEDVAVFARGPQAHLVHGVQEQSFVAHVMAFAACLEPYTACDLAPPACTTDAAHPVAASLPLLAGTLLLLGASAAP

[7] = molecular target: T5, Heat shock 70 kDa protein 1A (Homo sapiens, UniProt P0DMV8); assay: Hsp70 inhibitors, biochemical, TR-FRET (AID 786)
T5 sequence (P0DMV8 whole entry): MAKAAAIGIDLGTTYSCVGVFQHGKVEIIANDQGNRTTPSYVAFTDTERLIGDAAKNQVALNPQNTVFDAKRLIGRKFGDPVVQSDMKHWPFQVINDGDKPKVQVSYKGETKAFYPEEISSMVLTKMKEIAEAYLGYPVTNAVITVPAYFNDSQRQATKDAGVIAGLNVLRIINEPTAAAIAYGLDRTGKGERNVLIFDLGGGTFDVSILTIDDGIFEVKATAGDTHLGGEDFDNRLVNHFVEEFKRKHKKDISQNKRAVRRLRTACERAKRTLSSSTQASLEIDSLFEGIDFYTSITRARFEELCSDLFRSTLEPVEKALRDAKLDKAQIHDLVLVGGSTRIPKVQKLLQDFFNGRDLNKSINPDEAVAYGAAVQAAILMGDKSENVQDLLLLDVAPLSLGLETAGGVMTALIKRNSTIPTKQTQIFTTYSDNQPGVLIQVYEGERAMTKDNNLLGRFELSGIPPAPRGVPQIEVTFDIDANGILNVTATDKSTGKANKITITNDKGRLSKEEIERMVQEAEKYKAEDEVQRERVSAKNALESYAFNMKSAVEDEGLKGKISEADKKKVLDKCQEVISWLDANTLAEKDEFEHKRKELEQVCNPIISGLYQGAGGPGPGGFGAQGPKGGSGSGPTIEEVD

[8] = molecular target: T5, Heat shock 70 kDa protein 1A; assay: Hsp70 inhibitors, probe displacement, primary screen, biochemical, fluorescence polarization (AID 583)
[9] = NIH-3T3 fibroblast cytotoxicity, dose response, cytotoxicity control, cell-based, fluorescence, Alamar Blue, secondary assay (AID 2327); assay type: functional;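 note: NIH-3T3 mouse fibroblasts cultured with fluconazole at 8 µg/mL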
[10] = molecular target: Peroxisome proliferator-activated receptor gamma/Nuclear receptor coactivator 1 (Homo sapiens, UniProt P37231); assay: (§1) TR-FRET dose response biochemical High Throughput Screening assay for agonists of the steroid receptor coactivator 1 (SRC-1) recruitment by the peroxisome proliferator-activated receptor gamma (PPAR gamma): non-selective agonists. [Related pubchem assays (depositor defined):AID1300, AID1808, AID504735, AID631]; assay type: protein assay
Sequence of Peroxisome proliferator-activated receptor gamma/Nuclear receptor coactivator 1 (P37231 whole entry): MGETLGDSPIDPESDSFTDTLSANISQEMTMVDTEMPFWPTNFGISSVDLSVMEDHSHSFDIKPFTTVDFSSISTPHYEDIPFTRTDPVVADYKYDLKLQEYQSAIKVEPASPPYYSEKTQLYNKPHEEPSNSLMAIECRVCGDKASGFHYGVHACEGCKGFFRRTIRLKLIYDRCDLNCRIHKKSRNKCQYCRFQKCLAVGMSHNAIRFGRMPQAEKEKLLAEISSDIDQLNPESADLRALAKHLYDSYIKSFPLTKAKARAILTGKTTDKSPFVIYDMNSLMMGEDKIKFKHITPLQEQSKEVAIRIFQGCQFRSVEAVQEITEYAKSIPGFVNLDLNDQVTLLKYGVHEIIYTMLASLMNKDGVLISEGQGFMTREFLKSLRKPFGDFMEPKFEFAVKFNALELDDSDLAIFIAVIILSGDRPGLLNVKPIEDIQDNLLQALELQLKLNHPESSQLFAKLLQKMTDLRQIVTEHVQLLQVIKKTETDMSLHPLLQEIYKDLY
Sequence of Peroxisome proliferator-activated receptor gamma/Nuclear receptor coactivator 1 (Q15788 whole entry, further chain): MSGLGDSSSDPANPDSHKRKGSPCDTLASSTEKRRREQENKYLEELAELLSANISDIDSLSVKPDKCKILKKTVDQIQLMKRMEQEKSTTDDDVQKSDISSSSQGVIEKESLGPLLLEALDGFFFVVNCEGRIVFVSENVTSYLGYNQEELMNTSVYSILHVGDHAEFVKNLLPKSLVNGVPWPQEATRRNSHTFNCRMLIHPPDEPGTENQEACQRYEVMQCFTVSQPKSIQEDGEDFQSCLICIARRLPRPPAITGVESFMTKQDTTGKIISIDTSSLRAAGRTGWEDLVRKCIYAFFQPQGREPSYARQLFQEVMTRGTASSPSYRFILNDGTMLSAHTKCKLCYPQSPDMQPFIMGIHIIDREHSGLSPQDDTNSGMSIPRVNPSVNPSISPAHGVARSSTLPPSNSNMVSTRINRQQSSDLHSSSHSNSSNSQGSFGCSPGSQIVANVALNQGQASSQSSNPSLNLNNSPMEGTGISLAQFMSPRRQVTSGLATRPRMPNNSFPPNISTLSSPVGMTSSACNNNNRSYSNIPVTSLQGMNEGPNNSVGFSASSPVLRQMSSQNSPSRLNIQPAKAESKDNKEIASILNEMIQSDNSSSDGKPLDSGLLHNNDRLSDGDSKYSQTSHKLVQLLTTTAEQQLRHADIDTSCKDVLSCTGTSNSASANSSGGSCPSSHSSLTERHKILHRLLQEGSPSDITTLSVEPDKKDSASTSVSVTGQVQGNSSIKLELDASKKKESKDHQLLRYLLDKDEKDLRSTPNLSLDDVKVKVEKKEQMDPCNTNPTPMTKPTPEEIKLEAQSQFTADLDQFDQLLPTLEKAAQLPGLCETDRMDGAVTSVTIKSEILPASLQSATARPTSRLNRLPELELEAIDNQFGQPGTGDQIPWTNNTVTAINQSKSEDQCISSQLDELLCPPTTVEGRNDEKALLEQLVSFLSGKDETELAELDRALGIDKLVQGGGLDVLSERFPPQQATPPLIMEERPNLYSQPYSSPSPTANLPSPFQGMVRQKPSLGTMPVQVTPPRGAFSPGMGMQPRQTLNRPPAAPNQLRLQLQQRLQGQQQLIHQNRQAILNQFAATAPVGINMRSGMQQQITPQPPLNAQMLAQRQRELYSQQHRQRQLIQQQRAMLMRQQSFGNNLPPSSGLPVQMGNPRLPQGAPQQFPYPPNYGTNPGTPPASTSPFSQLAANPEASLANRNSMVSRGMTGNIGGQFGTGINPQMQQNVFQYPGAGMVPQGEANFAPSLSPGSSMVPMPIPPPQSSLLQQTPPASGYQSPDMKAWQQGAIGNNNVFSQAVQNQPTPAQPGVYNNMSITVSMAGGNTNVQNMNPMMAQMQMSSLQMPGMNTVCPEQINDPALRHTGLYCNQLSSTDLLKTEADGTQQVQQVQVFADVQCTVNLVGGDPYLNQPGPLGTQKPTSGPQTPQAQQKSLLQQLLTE

[11] = molecular target: Peroxisome proliferator-activated receptor gamma/Nuclear receptor coactivator 3 (Homo sapiens, UniProt P37231); assay: as §1, with “3 (SRC-3)” for “1 (SRC-1)”, “assays: 1301 (Confirmation screen.), 1048 (Primary screen.)]” for “assays (depositor defined):AID1300, AID1808, AID504735, AID631]”; assay type: functional
[12] = C. albicans growth with fluconazole, confirmation, fluorescence, retest (AID 2467); assay type: functional, cell-based
NS3 = NS3 (Hepatitis C virus, UniProt A3EZJ3); assay: PubChem AID 2173; set-up: species or system Hepacivirus hominis
[13] = molecular target: T6, Serine/threonine-protein phosphatase (Candida dubliniensis (strain CD36 / CBS 7987 / NCPF 3949 / NRRLY-17841) (Yeast), UniProt B9W6M3); assay: calcineurin pathway inhibitors in yeast reporter, dose response, S. cerevisiae, CDRE-lacZ, luminescence, secondary (AID 2388); assay type: functional, cell-based;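 note: yeast reporter cells carrying a calcineurin-responsive lacZ construct stimulated with calcium chloride; luminescent beta-galactosidase reporter signal in whole cells rather than isolated phosphatase activity; potency for inhibition where a drop in reporter signal means calcineurin blockade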
T6 sequence (B9W6M3 whole entry): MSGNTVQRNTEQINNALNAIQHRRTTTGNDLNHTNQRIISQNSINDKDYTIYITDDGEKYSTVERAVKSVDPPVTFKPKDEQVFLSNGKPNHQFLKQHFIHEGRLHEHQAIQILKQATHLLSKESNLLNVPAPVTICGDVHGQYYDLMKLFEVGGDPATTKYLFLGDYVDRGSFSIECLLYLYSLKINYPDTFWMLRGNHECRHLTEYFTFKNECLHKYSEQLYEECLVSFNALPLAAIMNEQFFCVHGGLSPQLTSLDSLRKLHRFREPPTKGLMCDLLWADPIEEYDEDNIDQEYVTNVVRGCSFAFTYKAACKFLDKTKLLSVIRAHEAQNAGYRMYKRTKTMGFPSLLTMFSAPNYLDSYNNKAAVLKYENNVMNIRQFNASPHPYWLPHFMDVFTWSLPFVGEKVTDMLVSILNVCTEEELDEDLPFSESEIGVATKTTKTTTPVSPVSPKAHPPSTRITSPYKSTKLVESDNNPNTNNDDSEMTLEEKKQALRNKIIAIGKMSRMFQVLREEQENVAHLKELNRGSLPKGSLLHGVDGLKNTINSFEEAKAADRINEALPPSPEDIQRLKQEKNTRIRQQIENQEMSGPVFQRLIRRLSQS

[14] = molecular target: Peroxisome proliferator-activated receptor gamma/Nuclear receptor coactivator 2 (Homo sapiens, UniProt P37231); assay: TR-FRET dose response biochemical High Throughput Screening assay for agonists of the steroid receptor coactivator 2 (SRC-2) recruitment by the peroxisome proliferator-activated receptor gamma (PPAR gamma): non-selective agonists. [Related pubchem assays: 1297, 1032 ]; assay type: functional
[15] = molecular target: ATP-dependent molecular chaperone HSP82 (Candida albicans (strain WO-1) (Yeast), UniProt C4YTQ8); assay: loss of DOC-induced GRE-beta-galactosidase reporter signal, dose response, Hsp90 inhibitor project, S. cerevisiae, luminescence (AID 2400); assay type: functional, cell-based;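 note: beta-galactosidase luminescence from glucocorticoid response element reporter as proxy for Hsp90 function; inhibitor potency where signal loss means Hsp90 inhibition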
Sequence of ATP-dependent molecular chaperone HSP82 (C4YTQ8 whole entry): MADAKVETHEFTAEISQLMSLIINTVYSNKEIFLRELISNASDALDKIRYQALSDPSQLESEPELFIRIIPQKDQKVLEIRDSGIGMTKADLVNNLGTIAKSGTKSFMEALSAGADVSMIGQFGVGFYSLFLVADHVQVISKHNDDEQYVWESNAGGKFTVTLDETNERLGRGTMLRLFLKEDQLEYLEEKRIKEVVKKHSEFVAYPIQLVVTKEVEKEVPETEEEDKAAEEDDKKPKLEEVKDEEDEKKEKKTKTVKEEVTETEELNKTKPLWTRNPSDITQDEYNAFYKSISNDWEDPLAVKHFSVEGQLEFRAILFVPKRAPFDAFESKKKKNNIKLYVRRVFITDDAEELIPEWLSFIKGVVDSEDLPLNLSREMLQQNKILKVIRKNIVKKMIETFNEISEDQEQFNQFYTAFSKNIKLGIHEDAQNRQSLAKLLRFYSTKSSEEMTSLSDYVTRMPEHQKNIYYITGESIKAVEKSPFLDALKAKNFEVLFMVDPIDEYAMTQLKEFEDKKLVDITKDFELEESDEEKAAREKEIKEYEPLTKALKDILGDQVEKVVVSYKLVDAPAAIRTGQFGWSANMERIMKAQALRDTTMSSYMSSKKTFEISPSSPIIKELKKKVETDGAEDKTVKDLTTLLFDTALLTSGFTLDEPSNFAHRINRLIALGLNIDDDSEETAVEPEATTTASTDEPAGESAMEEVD

[16] = molecular target: T7, Long-chain-fatty-acid--AMP ligase FadD28 (Mycobacterium tuberculosis, UniProt P9WQ59); assay: Fluorescence polarization aasay to screen for inhibitors that compete for the binding of FadD28 to a bisubstrate Measured in Biochemical System Using Plate Reader - 2147-01_Inhibitor_Dose_CherryPick_Activity.; assay type: functional, Mycobacterium tuberculosis H37Rv
T7 sequence (P9WQ59 whole entry): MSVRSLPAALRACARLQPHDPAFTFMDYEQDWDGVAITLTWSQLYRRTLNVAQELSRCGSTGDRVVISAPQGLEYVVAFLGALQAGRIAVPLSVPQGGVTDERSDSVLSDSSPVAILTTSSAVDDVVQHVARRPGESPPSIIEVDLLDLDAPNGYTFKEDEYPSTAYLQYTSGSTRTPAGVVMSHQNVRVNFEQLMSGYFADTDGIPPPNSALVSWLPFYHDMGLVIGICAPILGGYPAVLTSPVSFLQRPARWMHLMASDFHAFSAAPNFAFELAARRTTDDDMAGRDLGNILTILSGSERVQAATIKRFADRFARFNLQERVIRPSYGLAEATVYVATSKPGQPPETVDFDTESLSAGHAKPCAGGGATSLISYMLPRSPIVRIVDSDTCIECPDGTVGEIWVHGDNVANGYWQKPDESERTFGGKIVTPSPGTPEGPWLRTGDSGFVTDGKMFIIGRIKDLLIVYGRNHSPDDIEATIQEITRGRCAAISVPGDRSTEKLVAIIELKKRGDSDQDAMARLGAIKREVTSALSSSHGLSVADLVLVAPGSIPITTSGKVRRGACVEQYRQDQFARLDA

fMet-Leu-Phe receptor = molecular target: T8, fMet-Leu-Phe receptor (Homo sapiens, UniProt P21462); assay: FPR ligands, dose response (AID 519); assay type: functional
T8 sequence (P21462 whole entry): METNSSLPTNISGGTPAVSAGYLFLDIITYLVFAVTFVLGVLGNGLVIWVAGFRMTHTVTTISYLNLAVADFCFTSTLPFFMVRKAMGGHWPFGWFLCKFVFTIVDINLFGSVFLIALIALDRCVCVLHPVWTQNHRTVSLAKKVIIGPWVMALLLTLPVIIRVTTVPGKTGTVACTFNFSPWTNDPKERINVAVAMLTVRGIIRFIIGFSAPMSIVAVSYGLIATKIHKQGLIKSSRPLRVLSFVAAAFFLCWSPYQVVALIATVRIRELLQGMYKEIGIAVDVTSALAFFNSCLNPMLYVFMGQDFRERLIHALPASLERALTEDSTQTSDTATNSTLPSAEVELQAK

Q: For `Cc1cc(C)n(-c2nc(C)nc(NCc3ccccc3)n2)n1`, which EC50 [1] is on record?
A: Its EC50 is 42.4 µM (active).

Q: What about the EC50 (Streptokinase A) of the same compound?
A: The EC50 was > 150 µM (not active).

Q: And the EC50 (Mucolipin-3)?
A: The EC50 was > 29.9 µM (not active).

Q: What about the EC50 (Ion channel NompC) of the same compound?
A: The EC50 was > 29.9 µM (not active).

Q: What about the EC50 (Streptococcus) of the same compound?
A: Its EC50 is > 150 µM (not active).

Q: With `O=C(Nc1ccc(F)cc1)C(=O)c1c(O)[nH]c2ccc([N+](=O)[O-])cc12` as the compound, how does the IC50 (SUMO-activating enzyme [2]) read?
A: The IC50 was 9.48 µM (active).

Q: And the IC50 (SUMO-activating enzyme [3])?
A: Its IC50 is 24 µM (active).

Q: What about the IC50 [4] of the same compound?
A: The IC50 was > 50 µM (not active).

Q: What about the AC50 [5] of the same compound?
A: The AC50 was 10.4 µM (active).

Q: With `NC(=O)c1ccc(NC(=O)C2CCCC2)cc1` as the compound, how does the IC50 [6] read?
A: The IC50 was > 100 µM (inactive).

Q: What does the source list for `CCOc1ccccc1N1Cc2cc(C)c(C)cc2C1`?
A: IC50 [7]: > 100 µM (not active); IC50 [8]: > 100 µM (not active)

Q: For `COc1ccc(OC)c(C2C(C(=O)c3cc4ccccc4o3)=C(O)C(=O)N2c2cc(C)on2)c1` (configuration not stated), which EC50 [9] is on record?
A: The EC50 was > 150 µM (inactive).

Q: What about the EC50 [10] of the same compound?
A: The EC50 was > 79.4 µM (inactive).

Q: What about the EC50 [11] of the same compound?
A: Its EC50 is > 79.4 µM (not active).

Q: What about the EC50 [12] of the same compound?
A: The EC50 was 0.046 µM (active).

Q: And the IC50 (NS3)?
A: The IC50 was 5.29 µM (active).

Q: What about the EC50 [13] of the same compound?
A: The EC50 was > 180 µM (inactive).

Q: What about the EC50 [14] of the same compound?
A: The EC50 was 36 µM (not active).

Q: What about the EC50 [15] of the same compound?
A: The EC50 was 21.6 µM (active).

Q: And the AC50 [16]?
A: The AC50 was > 100 µM (inactive).

Q: And the Ki (fMet-Leu-Phe receptor)?
A: The Ki was 36.6 µM (inactive).
